Test results taken from ChEMBL document CHEMBL1158378, “QSAR model for predicting radical scavenging activity of di(hetero)arylamines derivatives of benzo[b]thiophenes” (Eur J Med Chem, 2009).

These compounds were tested on Radical scavenging activity (assay: Antioxidant activity assessed as inhibition of DPPH radical formation by Hatano's method).
Assay type: functional

Structure (SMILES) | pEC50
COc1ccc(Nc2cc3sc(C)c(C)c3cc2C)cc1 | 4.14
COc1ccc(Nc2c(C(=O)O)sc3ccccc23)c(OC)c1 | 3.61
COc1ccc(Nc2cccc3c(C)c(C)sc23)cc1OC | 4.26
COc1ccc(Nc2cc3sc(C)c(C)c3cc2C)cc1OC | 4.3
CCOC(=O)c1sc2ccccc2c1Nc1ccc(OC)cc1OC | 3.77
Cc1sc2c(Nc3cccnc3)cccc2c1C | 2.5
Cc1sc2c(Nc3ccccn3)cccc2c1C | 2.26
COc1ccc(Nc2cccc3c(C)c(C)sc23)cc1 | 4.3
COc1cccc(Nc2cccc3c(C)c(C)sc23)c1 | 2.81
CCOC(=O)c1sc2ccccc2c1Nc1ccc(O)cc1O | 3.84
Fc1ccccc1Nc1csc2ccccc12 | 3.81
Cc1sc2c(Nc3cccc(C#N)c3)cccc2c1C | 1.84

The compounds below were run on Radical scavenging activity (assay: Antioxidant activity assessed as inhibition of DPPH radical formation).
Assay type: functional

Structure (SMILES) | pEC50
Cc1sc2c(C)c(Nc3ccc(C#N)cc3)cc(C)c2c1C | 2.29
COc1ccc(Nc2cc(C)c3c(C)c(C)sc3c2C)c(Br)c1 | 3.98
COc1ccc(Nc2csc3ccccc23)c(OC)c1 | 4.06
Cc1cc2c(C)c(C)sc2cc1Nc1ccccc1Br | 3.05
COc1ccc(Nc2cc3sc(C)c(C)c3cc2C)c(Br)c1 | 3.69
Cc1sc2c(C)c(Nc3ccccn3)cc(C)c2c1C | 2.1
COc1ccc(Nc2cc3sc(C)c(C)c3cc2C)c(OC)c1 | 4.07
COc1cc(Br)c(Nc2cc3sc(C)c(C)c3cc2C)cc1OC | 3.81
Cc1sc2c(C)c(Nc3ccccc3Br)cc(C)c2c1C | 2.43
COc1ccc(Nc2cc(C)c3c(C)c(C)sc3c2C)cc1 | 3.89
CCOC(=O)c1sc2ccccc2c1Nc1ccccc1O | 3.91
Cc1cc2c(C)c(C)sc2cc1Nc1ccccc1I | 2.91
Cc1cc2c(C)c(C)sc2cc1Nc1ccc(C=O)cc1 | 2.39
COc1cccc(Nc2cc3sc(C)c(C)c3cc2C)c1 | 3.38
